This note sets out measurements from patent US20080194673A1, “Environment-Friendly Pollution-Proof Agent” (priority 2004, published 2008).

For one data set, the system named is Enteromorpha spores. As to the kind of experiment: inhibitory activity test against the mobility of Enteromorpha spores (Sargassum confusum fractions, Tables 5-8). The data set is classed as cell-based.
The test system of a further data set is Aspergillus niger. As to the kind of experiment: minimum inhibitory concentration (MIC) by two-fold serial dilution in nutrient broth. The data set is classed as cell-based. The note with it: 30° C., 48 hours. The source says: (§1) A liquid medium obtained by diluting PAGS by two-fold serial dilution was placed on a 96-multiwell plate and inoculated with 10^4 cfu/ml of microorganisms. […] The liquid medium used in the test was a nutrient broth (Difco).

A further data set concerns Staphylococcus aureus. The description is as above. The data set is classed as cell-based. As to conditions: 30° C., 48 hours.
From the text: as §1

The test system of the next data set is mice. As to the kind of experiment: safety test, single administration to mice, observed for 7 days. The data set is classed as in vivo, mouse. As to conditions: 10 mg/kg, 10 mice per group. The protocol: Each of hexadecane, octadecane, eicosane, 1-eicosanol, 1-pentadecanol, dibutyl phthalate, dioctyl phthalate, diisononyl phthalate, dicyclohexyl phthalate, and 6-formyl-3,4-dehydro-2,8-dimethyl-2-(3′,6′-dienyl-8′-hydroxy-4′-methylnonane)-2H-1-benzopyrane is dissolved in dimethylsulfoxide (DMSO) and diluted with water.

A further data set has as its system spores of Ulva pertusa. The data set is described as follows: inhibitory effect test against the mobility of the spores of Ulva pertusa (Example 2 fractions). It counts as cell-based. The protocol:
The effects of the fractions I-VI on the inhibition of attachment of fouling organisms were tested on Ulva pertusa, one of typical fouling algae. Ulva pertusa was collected in Kyongpodae, Kangnung-city, Kangwon-Do, Korea. The collected seaweed was transported to a laboratory in which only Ulva pertusa was screened. In order to remove fouling organisms, the screened algae were treated three times with supersonic waves for 1 minute for each time, and then washed clean with sterilized seawater. The washed algae were simply sterilized by immersion in a mixed solution of 1% betadine and 2% trition X-100 for 1 minute, followed by semi-drying. The semi-dried Ulva pertusa was added to sterilized seawater and placed in a 80 μmol m^−2s^−, 20° C. incubator to induce the release of spores.
10 μl of dimethyl sulfoxide (DMSO) was placed in a prepared tube, to which the seawater having spores released therein was then added. […] Before inoculation with each fraction at each dilution concentration, the movement of spores in the seawater was examined and the result was used as a comparison with a control group.

Data set [1] in a line: oral toxicity of methyl palmitate in mice. The note with it: mouse, in vivo, administered orally to mice.
In another data set the test system is eyes of rabbits. The note with it: rabbit, in vivo.
Another data set concerns human body. As to conditions: in vivo.
Data set [2] can be described thus: fish toxicity against water. The note with it: Blugil fish (a kind of trout), in vivo, other: exposure in water. The protocol:
The physical properties of methyl palmitate are as follows: a melting point of 32-34° C., a boiling point of 163-164° C., and a density of 0.852. […] Blugil fish which is a kind of trout was tested for toxicity against water, the result was as follows: LC50=1000 ml/l.

A short description of the next data set: in vivo. The protocol: Methyl stearate is an opaque white-colored crystal and has the following physical properties: a melting point of 40-42° C., and a boiling point of 181-182° C.
Where [3] appears, read: ratio 1:0 (not explained; test of PAGS).
Where [4] appears, read: ratio 3:1 (not explained; test of PAGS).

Values after ≈ are worked out from the molar mass of the structure shown. Bounds are passed on as bounds.

As to “6-formyl-3,4-dehydro-2,8-dimethyl-2-(3′,6′-dienyl-8′-hydroxy-4′-methylnonane)-2H-1-benzopyrane”, the “Activity (inhibition of the mobility of spores)” value with Enteromorpha spores (125 μg/ml), in the data set with Enteromorpha spores (250 μg/ml), in the data set with Enteromorpha spores (500 μg/ml), in the data set with Enteromorpha spores (1,000 μg/ml), in the data set with Enteromorpha spores (2,000 μg/ml) and in the data set with Enteromorpha spores (4,000 μg/ml) was “++++ (more than 95% inhibition of the mobility of spores)” throughout. In the data set on Aspergillus niger (setting [3]), the “MIC Aspergillus niger 1:0” value worked out at 10. Further, in the data set on Aspergillus niger (setting [4]), the “MIC Aspergillus niger 3:1” value is 2. Besides, the “MIC Staphylococcus aureus 1:0” value in the data set on Staphylococcus aureus (setting [3]) came to 4. For the same compound, the “MIC Staphylococcus aureus 3:1” value in the data set on Staphylococcus aureus (setting [4]) came to 1. Also, the “death of the mice” value with mice is listed as “no death”.
With `CCCCCCCCCCCCCCCCCCCC` (single isomer, unassigned) [eicosane], the “death of the mice” value with mice is reported as “no death”.
The same measure, in the same setting: with `CCCCCCCCCCCCCCCO` [1-pentadecanol] the entry was “no death”.
As to `CCCCCCCCCCCCCCCCCCCC` [B], the Mobility inhibitory activity entry with spores of Ulva pertusa (125 μg/ml), with spores of Ulva pertusa (250 μg/ml), in the data set with spores of Ulva pertusa (500 μg/ml), in the data set with spores of Ulva pertusa (1,000 μg/ml), in the data set with spores of Ulva pertusa (2,000 μg/ml) and in the data set on spores of Ulva pertusa (4,000 μg/ml) was “++++ (more than 95% inhibition of the mobility of spores)” throughout.
In the case of `CCCCCCCCCCCCCCCCCCCCO` [C], the Mobility inhibitory activity result in the data set on spores of Ulva pertusa (125 μg/ml), in the data set on spores of Ulva pertusa (250 μg/ml), in the data set with spores of Ulva pertusa (500 μg/ml), with spores of Ulva pertusa (1,000 μg/ml), in the data set with spores of Ulva pertusa (2,000 μg/ml) and in the data set on spores of Ulva pertusa (4,000 μg/ml) was “++++ (more than 95% inhibition of the mobility of spores)” throughout.
As to `CCCCCCCCCCCCCCCO` [D], the Mobility inhibitory activity result in the data set with spores of Ulva pertusa (125 μg/ml), in the data set on spores of Ulva pertusa (250 μg/ml), with spores of Ulva pertusa (500 μg/ml), in the data set with spores of Ulva pertusa (1,000 μg/ml), in the data set on spores of Ulva pertusa (2,000 μg/ml) and in the data set on spores of Ulva pertusa (4,000 μg/ml) was “++++ (more than 95% inhibition of the mobility of spores)” in each case.
Consider `CCCCOC(=O)c1ccccc1C(=O)OCCCC` [E], for which the Mobility inhibitory activity result with spores of Ulva pertusa (125 μg/ml), in the data set on spores of Ulva pertusa (250 μg/ml), in the data set with spores of Ulva pertusa (500 μg/ml), in the data set on spores of Ulva pertusa (1,000 μg/ml), with spores of Ulva pertusa (2,000 μg/ml) and in the data set on spores of Ulva pertusa (4,000 μg/ml) was “++++ (more than 95% inhibition of the mobility of spores)” throughout.
Consider `CCCCCCCCCCCCCCCCCCCCO` [Example 1-eicosanol, 1-eicosanol], for which the “death of the mice” value in the data set on mice is given as “no death”.
As to `CCCCCCCCOC(=O)c1ccccc1C(=O)OCCCCCCCC` [F], the Mobility inhibitory activity entry with spores of Ulva pertusa (125 μg/ml), with spores of Ulva pertusa (250 μg/ml), with spores of Ulva pertusa (500 μg/ml), with spores of Ulva pertusa (1,000 μg/ml), in the data set on spores of Ulva pertusa (2,000 μg/ml) and in the data set on spores of Ulva pertusa (4,000 μg/ml) was “++++ (more than 95% inhibition of the mobility of spores)” each time.
As to `CC(C)CCCCCCOC(=O)c1ccccc1C(=O)OCCCCCCC(C)C` [G], the Mobility inhibitory activity entry in the data set with spores of Ulva pertusa (125 μg/ml), in the data set with spores of Ulva pertusa (250 μg/ml), in the data set on spores of Ulva pertusa (500 μg/ml), in the data set with spores of Ulva pertusa (1,000 μg/ml), in the data set with spores of Ulva pertusa (2,000 μg/ml) and in the data set with spores of Ulva pertusa (4,000 μg/ml) was “++++ (more than 95% inhibition of the mobility of spores)” each time.
For the compound `O=C(OC1CCCCC1)c1ccccc1C(=O)OC1CCCCC1` [H], the Mobility inhibitory activity entry with spores of Ulva pertusa (125 μg/ml), in the data set on spores of Ulva pertusa (250 μg/ml), in the data set with spores of Ulva pertusa (500 μg/ml), in the data set on spores of Ulva pertusa (1,000 μg/ml), with spores of Ulva pertusa (2,000 μg/ml) and with spores of Ulva pertusa (4,000 μg/ml) was “++++ (more than 95% inhibition of the mobility of spores)” throughout.
In the case of `CCCCOC(=O)c1ccccc1C(=O)OCCCC` [dibutyl phthalate], the “death of the mice” value in the data set on mice was “no death”.
The same measure, in the same setting: next, `O=C(OC1CCCCC1)c1ccccc1C(=O)OC1CCCCC1` [dicyclohexyl phthalate]: “no death”.
Same read-out and setting: with `CC(C)CCCCCCOC(=O)c1ccccc1C(=O)OCCCCCCC(C)C` [diisononyl phthalate] the entry was “no death”.
With `CCCCCCCCOC(=O)c1ccccc1C(=O)OCCCCCCCC` [dioctyl phthalate], in the data set with mice, the “death of the mice” value is reported as “no death”.
On the same count and under the same terms, next, `CCCCCCCCCCCCCCCC` [hexadecane]: “no death”.
A word on the LD50: it is the dose expected to kill half of the subjects tested. A low value points to greater toxicity. The LC50 is the concentration that kills 50% of the test population. Lower therefore signals a more lethal substance. For the compound `CCCCCCCCCCCCCCCC(=O)OC` [methyl palmitate], in data set [1], the 50% lethal dose (LD50) is > 20000 mg/kg. Further, the stimulus to eyes result in the data set with eyes of rabbits is on record as “only a transient stimulus phenomenon occurred”. For the same compound, the stimulus to skin result in the data set with human body was “only a very mild stimulus remained”. The compound also registered an LC50 in data set [2] of 1000 µg/mL (≈ 3.7 mM).
On to `CCCCCCCCCCCCCCCCCC(=O)OC` [methyl stearate], for which the 50% lethal dose (LD50) in the data set “in vivo” (in vivo, species and route not given) is > 17200 mg/kg. For the same compound, in the data set “in vivo” (suction, intake, epidermal absorption), the stimulus result was “gives no stimulus”.
With `CCCCCCCCCCCCCCCCCC` [octadecane], the “death of the mice” value with mice is “no death”.
